Results as given in US10952987B2 (BIOPROJET, priority 2012, dated 2021).

Tests used:
[1] = adrenalin alone 30 μg/kg intramuscular, anesthetized rabbits
[2] = adrenalin alone 30 μg/kg intramuscular, anesthetized rabbits; remark: listed apart in the source
[3] = in animals as well as in humans; cited from earlier work

AUC of second plasma adrenalin peak relative to the first one [1]: about 20 times
time of first narrow peak in plasma adrenalin level [1]: a few minutes following the injection
time of second, much larger peak in plasma adrenalin level ([1]; later than first peak): 20 min
SMILES: CNC[C@H](O)c1ccc(O)c(O)c1 [adrenalin]
hypertensive episodes [2]: two hypertensive episodes occurred at the times of the plasma adrenalin peaks
delay of the bulk of the increase in plasma levels of adrenalin after injection [3]: about 20 minutes
